Test system: Torpedo californica electric organ synpatic vesicles
Experiment: Inhibition of ATP-dependent uptake of radioactive ACh by purified Torpedo electric organ synaptic vesicles in vitro
Format: biochemical
Conditions: for IC50: purified Torpedo vesicles, room temperature, approximately 30 minutes, neutral pH, approximately 5 mM ATP, 50 μM radioactive ACh, read-out: IC50 (inhibition of vesicular ACh uptake)
Description: For example, purified Torpedo californica electric organ synpatic vesicles uptake ACh in vitro in the presence of ATP. Such vesicles are incubated at room temperature for approximately 30 minutes in isosmotic buffer at neutral PH, the buffer containing approximately 5 mM ATP and 50 μM radioactive ACh, and the radioactivity accumulated by the washed vesicles is then measured by liquid scintillation spectroscopy. By varying the concentration of the compound to be tested to determine its inhibitory effect on ACh uptake, a dose response curve can be deduced including the IC50.

SMILES	IC50	times more effective than AH 5183 in preventing ACh uptake by the vesicles (relative to AH 5183)	concentration needed relative to DPPN for comparable blockade of vesicular uptake of ACh (relative to DPPN)
O[C@@H]1C[C@H]2CCCC[C@@H]2C[C@H]1N1CCC(c2ccccc2)CC1 (relative stereo) [DPPN, (2α, 3β, 4aβ, 8aα)-decahydro-3-(4-phenyl-1-piperidinyl)-2-naphthalenol]	10 µM	approximately four	–
OC1CCCCC1N1CCC(c2ccccc2)CC1 (stereo not shown) [AH 5183, 2-(4-Phenylpiperidino)-cyclohexanol]	40 µM	–	at least four
